Tests used:
Bradykinin B2 Receptor = target: T1, Bradykinin B2 Receptor (Homo sapiens, UniProt P30411); assay: Radioligand binding assay for bradykinin B2 receptor
T1 construct: purchased; host or cells: transiently transfected CHO-K1 cells (membranes)
T1 sequence (P30411 1-391): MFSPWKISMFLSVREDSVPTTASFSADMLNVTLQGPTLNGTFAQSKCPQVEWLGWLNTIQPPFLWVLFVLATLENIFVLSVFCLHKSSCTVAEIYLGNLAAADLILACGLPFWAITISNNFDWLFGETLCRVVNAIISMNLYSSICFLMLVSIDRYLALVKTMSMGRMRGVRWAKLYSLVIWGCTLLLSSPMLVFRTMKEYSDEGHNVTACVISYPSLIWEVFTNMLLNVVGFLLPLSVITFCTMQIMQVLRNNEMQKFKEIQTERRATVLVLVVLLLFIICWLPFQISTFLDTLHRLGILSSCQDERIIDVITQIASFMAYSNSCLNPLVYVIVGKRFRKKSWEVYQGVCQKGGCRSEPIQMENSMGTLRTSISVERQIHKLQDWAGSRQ
Procedure: (§1) Example 10: Radioligand Binding Assay for Bradykinin B1 and B2 Receptor
(§2) Bradykinin receptor membrane (B1 & B2) was procured from commercial source. Competitive radioligand binding assay was done by filtration-based technique using membranes prepared from transiently transfected Chinese hamster ovary (CHO)—K1 cells. Briefly, different concentrations of Phenazopyridine (compound I-A) was added to 96 wells plate containing bradykinin membrane along with required controls. The assay plate was harvested onto a GF/B Unifier harvester plate and washed with cold wash buffer. Plate was dried in oven for 15 mins at 60° C. The membrane activity was analyzed based on the readout using MicroBeta from Perkin Elmer in Counts Per Minute (CPM). Percent inhibition of Bradykinin receptor activity was calculated at each concentration and summarized in the results.

Bradykinin B1 Receptor = target: T2, Bradykinin B1 Receptor (Homo sapiens, UniProt P46663); assay: Radioligand binding assay for bradykinin B1 receptor
T2 construct: purchased; host or cells: transiently transfected CHO-K1 cells (membranes)
T2 sequence (P46663 1-353): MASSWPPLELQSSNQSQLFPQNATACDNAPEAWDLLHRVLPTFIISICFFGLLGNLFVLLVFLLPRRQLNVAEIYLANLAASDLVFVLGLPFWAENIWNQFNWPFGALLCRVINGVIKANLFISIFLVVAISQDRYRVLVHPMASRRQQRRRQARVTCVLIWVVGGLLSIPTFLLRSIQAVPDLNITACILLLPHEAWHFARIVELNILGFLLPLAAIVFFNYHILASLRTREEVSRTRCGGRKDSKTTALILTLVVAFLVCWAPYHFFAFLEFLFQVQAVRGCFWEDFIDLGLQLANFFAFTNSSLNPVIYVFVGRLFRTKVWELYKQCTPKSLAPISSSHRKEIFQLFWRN
Procedure: as §1, §2

Structure (SMILES): Nc1ccc(/N=N/c2ccccc2)c(N)n1 [Phenazopyridine]
- inhibition at 0.03 µM (Bradykinin B2 Receptor; 0.03 μM): 6%
- inhibition at 0.1 µM (Bradykinin B2 Receptor; 0.10 μM): 13%
- inhibition at 0.32 µM (Bradykinin B2 Receptor; 0.32 μM): 10%
- inhibition at 1 µM (Bradykinin B2 Receptor; 1.00 μM): 37%
- inhibition at 3.17 µM (Bradykinin B2 Receptor; 3.17 μM): 38%
- inhibition at 10.01 µM (Bradykinin B2 Receptor; 10.01 μM): 59%
- inhibition at 31.65 µM (Bradykinin B2 Receptor; 31.65 μM): 78%
- inhibition at 100 µM (Bradykinin B2 Receptor; 100.00 μM): 98%
- inhibition at 1 µM (Bradykinin B1 Receptor; 1.00 μM): 12%
- inhibition at 10.01 µM (Bradykinin B1 Receptor; 10.01 μM): 49%
- inhibition at 100 µM (Bradykinin B1 Receptor; 100.00 μM): 81%
